From patent US3933838A, “5-Substituted 2-amino-4-arylthiazoles” (Instituto Luso Farmaco d'Italia S.r.l., priority 1972, dated 1976)

Assays:
[1] = LD50 mice; details: mouse, in vivo
[2] = test system: mice; assay: analgesic action, stretching acetic acid, mice; assay type: in vivo; details: oral; for ED50: Mus musculus
Text: (§1) The analgesic action has been assessed in rats (Arch. int. Pharmacodyn. 1957, 111 : 409) and in mice (Boll. Chim. Farm. 1968, 107 : 29), the antipyretic action in rats (J. Pharmacol. exp. Ther. 1963, 141 : 369); and the anti-cough action in guinea pigs made to inhale 4% ammonia.
(§2) Whenever possible the ED50 values have been calculated.

[3] = test system: rats; assay: anti-ulcer action in rats kept without food for 24 hours and motionless for 4 hours; assay type: in vivo; details: 10 mg/kg intraperitoneal
Protocol: The anti-ulcer property has been studied in rats kept without food for 24 hours and motionless for 4 hours (Therapie 1960, 15 : 1096).

[4] = test system: adult rats; assay: anti-inflammatory action, carragenin oedema test in rats; assay type: in vivo; details: for ED50: Rattus norvegicus, read-out: anti-inflammatory action rats ED50, carrageenin oedema
Text: (§3) The anti-inflammatory action has been studied in adult rats by using the carragenin oedema test (Proc. Soc. exp. Biol. Med. 1962, 111 : 544) and the granuloma from an extraneous substance (J. Amer. Pharm. Ass., Sci. Ed. 1957, 46 : 515).
as §2

[5] = test system: guinea pigs; assay: anti-cough action in guinea pigs made to inhale 4% ammonia; assay type: in vivo; details: intraperitoneal
Text: as §1, §2

[6] = test system: mice; assay: analgesic action, tail clip, mice; assay type: in vivo; details: oral
Text: as §1, §2

[7] = test system: adult rats; assay: anti-inflammatory action, granuloma from an extraneous substance in rats; assay type: in vivo; details: Rattus norvegicus, 168 h; oral × 7 days
Text: as §3, §2

[8] = test system: rats; assay: analgesic action, Randall Selitto, rats; assay type: in vivo; details: oral; for ED50: Rattus norvegicus
Text: as §1, §2

[9] = LD50 rats; assay type: in vivo; details: rat, in vivo
[10] = test system: rats; assay: LD50 rats; assay type: in vivo; details: oral
[11] = test system: rats; assay: antipyretic action in rats; assay type: in vivo; details: oral
Text: as §1, §2

[12] = intraperitoneal, 200 mg/kg maximum dose

SMILES: O=C(O)Cc1sc(Nc2c(Cl)cccc2Cl)nc1-c1ccccc1 [LR 396, [2-n-(2', 6'-dichlorophenyl)-amino-4-phenyl-thiazol-5-yl]-acetic acid]
- LD50 ([1]; ip, intraperitoneal): > 1000 mg/kg
- stretching acetic acid, effect at maximum dose administered ([2]; 100 mg/kg maximum dose): 26%
- anti-ulcer action, protected rats in % [3]: 40%
- anti-ulcer action, reduction in number of ulcers in % [3]: 45%
- carrageenin oedema, effect at maximum dose administered [4, 12]: .phi.

SMILES: O=C(O)Cc1sc(NC(=O)Nc2ccccc2)nc1-c1ccc(Cl)cc1 [LR 364, [2-(phenylamino-carbonylamino)-4-p-chlorophenyl-thiazol-5-yl]-acetic acid]
- LD50 ([1]; ip, intraperitoneal): > 1000 mg/kg
- stretching acetic acid, effect at maximum dose administered ([2]; 200 mg/kg maximum dose): 31%
- anti-ulcer action, protected rats in % [3]: 30%
- anti-ulcer action, reduction in number of ulcers in % [3]: 59%
- anti-coughing action, effect at maximum dose administered ([5]; 200 mg/kg maximum dose): .phi.
- carrageenin oedema, effect at maximum dose administered [4, 12]: .phi.
- tail clip, effect at maximum dose administered ([6]; 200 mg/kg maximum dose): .phi.

SMILES: O=C(O)Cc1sc(Nc2ccccc2)nc1-c1ccc(Cl)cc1 [LR 330, (2-phenylamino-4-p-chlorophenyl-thiazol-5-yl)-acetic acid]
- LD50 ([1]; ip, intraperitoneal): > 1000 mg/kg
- LD50 ([1]; oral): > 3000 mg/kg
- ED50 [7]: 400 mg/kg
- ED50 [2]: 75 mg/kg
- anti-coughing action, effect at maximum dose administered ([5]; 200 mg/kg maximum dose): .phi.
- ED50 [8]: 200 mg/kg
- LD50 ([9]; ip, intraperitoneal): > 1000 mg/kg
- LD50 ([9]; po): > 2000 mg/kg
- LD50 [10]: > 3000 mg/kg
- ED50 ([4]; ip, intraperitoneal): 75 mg/kg
- ED50 ([4]; oral): 400 mg/kg
- tail clip, effect at maximum dose administered ([6]; 200 mg/kg maximum dose): .phi.
- anti-pyretic action, effect at maximum dose administered ([11]; 200 mg/kg maximum dose): .phi.

SMILES: CCN(CC)CCNC(=O)Cc1sc(N)nc1-c1ccc(Cl)cc1 [LR 450, (2-amino-4-p-chlorophenyl-thiazol-5-yl)-N-(N',N' diethylaminoethyl)-acetamide]
- LD50 ([1]; ip, intraperitoneal): 43 mg/kg
- LD50 ([1]; oral): 238 mg/kg
- ED50 [7]: 100 mg/kg
- stretching acetic acid, effect at maximum dose administered ([2]; 100 mg/kg maximum dose): 27%
- anti-ulcer action, protected rats in % [3]: 65%
- anti-ulcer action, reduction in number of ulcers in % [3]: 69%
- anti-coughing action, effect at maximum dose administered ([5]; 12 mg/kg maximum dose): .phi.
- Randall Selitto, effect at maximum dose administered ([8]; 100 mg/kg maximum dose): 18%
- LD50 ([9]; ip, intraperitoneal): 47 mg/kg
- LD50 ([9]; po): 915 mg/kg
- carrageenin oedema, effect at maximum dose administered ([4]; intraperitoneal, 6 mg/kg maximum dose): 36%
- carrageenin oedema, effect at maximum dose administered ([4]; oral, 100 mg/kg maximum dose): 35%
- tail clip, effect at maximum dose administered ([6]; 50 mg/kg maximum dose): .phi.
- anti-pyretic action, effect at maximum dose administered ([11]; 100 mg/kg maximum dose): 38%

SMILES: Nc1nc(-c2ccc(Cl)cc2)c(CC(=O)O)s1 [LR 331, (2-amino-4-p-chlorophenyl-thiazol-5-yl)-acetic acid]
- LD50 ([1]; ip, intraperitoneal): 800 mg/kg
- LD50 ([1]; oral): > 5000 mg/kg
- ED50 [7]: 300 mg/kg
- ED50 [2]: 132 mg/kg
- anti-ulcer action, protected rats in % [3]: 30%
- anti-ulcer action, reduction in number of ulcers in % [3]: 52%
- anti-coughing action, effect at maximum dose administered ([5]; 50 mg/kg maximum dose): 17%
- Randall Selitto, effect at maximum dose administered ([8]; 175 mg/kg maximum dose): 15%
- LD50 ([9]; ip, intraperitoneal): 840 mg/kg
- LD50 ([9]; po): > 1000 mg/kg
- ED50 ([4]; ip, intraperitoneal): 140 mg/kg
- ED50 ([4]; oral): 300 mg/kg
- tail clip, effect at maximum dose administered ([6]; 175 mg/kg maximum dose): .phi.
- anti-pyretic action, effect at maximum dose administered ([11]; 400 mg/kg maximum dose): .phi.

SMILES: CCN(CC)c1nc(-c2ccc(Cl)cc2)c(CC(=O)O)s1 [LR 407, (2-n,n-diethylamino-4-p-chlorophenyl-thiazol-5-yl)-acetic acid]
- LD50 ([1]; ip, intraperitoneal): 400 mg/kg
- LD50 ([1]; oral): 1260 mg/kg
- ED50 [7]: 170 mg/kg
- ED50 [2]: 26 mg/kg
- anti-ulcer action, reduction in number of ulcers in % [3]: 23%
- ED50 ([5]; Cavia porcellus, ip, read-out: anti-coughing action guinea pigs ED50): 34 mg/kg
- ED50 [8]: > 400 mg/kg
- LD50 ([9]; ip, intraperitoneal): 385 mg/kg
- LD50 ([9]; po): > 1500 mg/kg
- ED50 ([4]; ip, intraperitoneal): 60 mg/kg
- ED50 ([4]; oral): 120 mg/kg
- ED50 ([6]; Mus musculus): 48 mg/kg
- ED50 ([11]; Rattus norvegicus, read-out: anti-pyretic action rats ED50): 73 mg/kg
